US8480638B2, “Intraocular iontophoretic device and associated methods” (Aciont, Inc., priority 2007, dated 2013)

Columns and labels:
[1] = MRI distribution of Mn^++ in the rabbit eye after iontophoresis with a handheld ocular iontophoretic device; format: in vivo; conditions: finger pressure, hydrogel 1.0M Mn^++, 2 mA for 20 minutes, return electrode on ear, 3 Tesla MRI, FIG. 7
Description: A handheld ocular iontophoretic device is constructed from a plastic tube, wherein one end is shaped to conform to the eye of a rabbit. An electroplated AgAgCl electrode is positioned in one end of the plastic tube and a hydrogel is inserted into the tube so that one side of the hydrogel contacts the electrode, while the opposite side is configured to contact the eye. The hydrogel has been previously loaded with 1.0M Mn^++. The iontophoretic device is coupled to a power source and placed against the surface of an eye of a rabbit, partially within the cul-de-sac in a dorsal location. A return electrode is attached to the ear of the rabbit, and finger pressure is used to seal the device against the eye. 2 mA of current is applied to the iontophoretic device for 20 minutes to deliver the Mn^++ from the hydrogel and into the eye.

[2] = MRI distribution of Mn^++ in the rabbit eye after iontophoresis with an iontophoretic scleral lens device with suction; format: in vivo; conditions: suction applied, hydrogel 1.0M Mn^++, 3 mA for 20 minutes, 3 Tesla MRI, FIG. 8
Description: An iontophoretic scleral lens device is configured to conform to the eye of a rabbit. An electroplated AgAgCl electrode coupled to a 1.0M Mn^++ filled hydrogel is located within a reservoir structure along the contact surface of the scleral lens. The iontophoretic device is coupled to a power source and positioned on an eye of a rabbit, such that the reservoir is located partially within the cul-de-sac in a dorsal region of the eye. A return electrode is attached to the ear of the rabbit, and suction is applied to the scleral lens to preclude movement of the lens relative to the eye surface. 3 mA of current is applied to the scleral lens device for 20 minutes to deliver the Mn^++ from the hydrogel and into the eye. […] Diffusion from this region can be seen in the white band extending toward the posterior eye tissues.

SMILES: [Mn+2] [Mn^++]
- Distribution of the Mn^++ within the eye of the rabbit (MRI, white contrast) [1]: delivered primarily to the eyelid and surrounding tissues with relatively little delivery into the eye itself
- Depot formation in the eye (MRI, black region along the dorsal region of the eye) [2]: formation of a depot of concentrated Mn^++
- Distribution of the Mn^++ within the eye of the rabbit (MRI, white contrast) ([2]; return electrode on ear): delivered primarily into the eye tissues
